{"source": "patent US10988523B2", "about": "“Modified lipidated Relaxin B chain peptides and their therapeutic use” (Sanofi, priority 2018, dated 2021)", "key": {"[1]": {"assay": "Stability testing of peptides in rat plasma or blood", "type": "in vitro ADME", "settings": "37° C.; for Rat plasma stability % remaining T = 0: rat plasma or blood, T = 0 (reference), 5 μM", "method_in_brief": "(§1)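 Peptide at 5 µM final was incubated at 37 °C in heparinized rat or human plasma or blood, sampled up to 4 h, and extracted with acetonitrile/1% TFA. HPLC peak areas relative to t0 give % remaining peptide.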"}, "[2]": {"assay": "Stability testing of peptides in human plasma or blood", "type": "in vitro ADME", "settings": "37° C.; for Human Plasma stability % remaining T = 0: human plasma or blood, T = 0 (reference), 5 μM", "method_in_brief": "as §1"}, "[3]": {"settings": "rat plasma, read-out: Rat plasma stability % remaining 1 h"}, "[4]": {"settings": "rat plasma, read-out: Rat plasma stability % remaining 4 h"}, "[5]": {"settings": "human plasma, read-out: Human Plasma stability % remaining 1 h"}, "[6]": {"settings": "human plasma, read-out: Human Plasma stability % remaining 4 h"}, "[7]": {"settings": "whole blood, rat blood, read-out: Rat stability in blood % remaining 1 h"}, "[8]": {"settings": "whole blood, rat blood, read-out: Rat stability in blood % remaining 4 h"}, "[9]": {"settings": "whole blood, human blood, read-out: Human stability in blood % remaining 1 h"}, "[10]": {"settings": "whole blood, human blood, read-out: Human stability in blood % remaining 4 h"}}, "note": "*1 amine or outer side, *2 acyl side, *3 side chain or, on linkers, in order; H or OH if unused. Where a SMILES comes first, the peptide text is derived from it. Side-chain parts run from the residue outwards. [ ]: non-standard residue; d: D form. The star is where a group is joined. PEG12 = NCCOCCOCCOCCOCCOCCOCCOCCOCCOCCOCCOCCOCCC(=O)O; γGlu = O=C(O)[C@H](CCC(=O)[*:2])N[*:1]; Stearoyl = CCCCCCCCCCCCCCCCCC(=O)*; Palmitoyl = CCCCCCCCCCCCCCCC(=O)*; αMeK = C[C@](N)(CCCCN)C(=O)O; Nle = CCCC[C@H](N)C(=O)O; AEEA = NCCOCCOCC(=O)O; Aib = CC(C)(N)C(=O)O"}
{"molecule": "CCCCCCCCCCCCCCCCCC(=O)N[C@@H](CCC(=O)N[C@@H](CCC(=O)N[C@@H](CCC(=O)NCCCC[C@H](NC(=O)CCOCCOCCOCCOCCOCCOCCOCCOCCOCCOCCOCCOCCNC(=O)[C@H](CCCCNC(C)=O)NC(=O)[C@H](CCCCN)NC(=O)[C@H](CCCNC(=N)N)NC(=O)C(C)(C)NC(=O)[C@H](CO)NC(=O)[C@H](Cc1c[nH]c2ccccc12)NC(=O)[C@@H](NC(=O)[C@H](CO)NC(=O)[C@H](CCCC)NC(=O)CNC(=O)[C@H](CCC(=O)O)NC(=O)C(C)(C)NC(=O)C(C)(C)NC(=O)[C@@H](NC(=O)[C@H](CCCCNC(C)=O)NC(=O)[C@H](C)NC(=O)[C@H](CCCNC(=N)N)NC(=O)[C@@H](NC(=O)[C@H](CCCCN)NC(=O)[C@H](CCC(=O)O)NC(=O)[C@H](CCCNC(=N)N)NC(=O)CNC(=O)[C@H](CCC(=O)O)NC(=O)[C@H](CC(C)C)NC(C)=O)C(C)C)[C@@H](C)CC)[C@@H](C)O)C(N)=O)C(=O)O)C(=O)O)C(=O)O", "note": "[compound 33] (Ac-LEGREKVRAK(Ac)I[Aib][Aib]EG[Nle]STWS[Aib]RKK(Ac)[PEG12]K([γGlu-γGlu-γGlu-Stearoyl])-NH2)", "values": [{"measurement": "Rat plasma stability % remaining T = 0", "setting": "[1]", "value": 100, "unit": "%"}, {"measurement": "remaining at 1 h, 5 µM", "setting": "[1]; [3]", "value": 93, "unit": "%"}, {"measurement": "remaining at 4 h, 5 µM", "setting": "[1]; [4]", "value": 80, "unit": "%"}, {"measurement": "Human Plasma stability % remaining T = 0", "setting": "[2]", "value": 100, "unit": "%"}, {"measurement": "remaining at 1 h, 5 µM", "setting": "[2]; [5]", "value": 99, "unit": "%"}, {"measurement": "remaining at 4 h, 5 µM", "setting": "[2]; [6]", "value": 96, "unit": "%"}]}
{"molecule": "CCCCCCCCCCCCCCCC(=O)N[C@@H](CCC(=O)N[C@@H](CCC(=O)N[C@@H](CCC(=O)NCCOCCOCC(=O)NCCOCCOCC(=O)NCCCC[C@H](NC(=O)[C@H](CCCCN)NC(=O)[C@H](CCCNC(=N)N)NC(=O)C(C)(C)NC(=O)[C@H](CO)NC(=O)[C@H](Cc1c[nH]c2ccccc12)NC(=O)[C@@H](NC(=O)[C@H](CO)NC(=O)[C@H](CCCC)NC(=O)CNC(=O)[C@H](CCC(=O)O)NC(=O)C(C)(C)NC(=O)C(C)(C)NC(=O)[C@@H](NC(=O)[C@H](CCC(N)=O)NC(=O)[C@H](C)NC(=O)[C@H](CCCNC(=N)N)NC(=O)[C@@H](NC(=O)[C@H](CCCCN)NC(=O)[C@H](CCC(=O)O)NC(=O)[C@H](CCCNC(=N)N)NC(=O)CNC(=O)[C@H](CCC(=O)O)NC(=O)[C@H](CC(C)C)NC(C)=O)C(C)C)[C@@H](C)CC)[C@@H](C)O)C(N)=O)C(=O)O)C(=O)O)C(=O)O", "note": "[compound 58] (Ac-LEGREKVRAQI[Aib][Aib]EG[Nle]STWS[Aib]RKK([AEEA-AEEA-γGlu-γGlu-γGlu-Palmitoyl])-NH2)", "values": [{"measurement": "Rat plasma stability % remaining T = 0", "setting": "[1]", "value": 100, "unit": "%"}, {"measurement": "remaining at 1 h, 5 µM", "setting": "[1]; [3]", "value": 96, "unit": "%"}, {"measurement": "remaining at 4 h, 5 µM", "setting": "[1]; [4]", "value": 101, "unit": "%"}, {"measurement": "Human Plasma stability % remaining T = 0", "setting": "[2]", "value": 100, "unit": "%"}, {"measurement": "remaining at 1 h, 5 µM", "setting": "[2]; [5]", "value": 100, "unit": "%"}, {"measurement": "remaining at 4 h, 5 µM", "setting": "[2]; [6]", "value": 11, "unit": "%"}]}
{"molecule": "CCCCCCCCCCCCCCCCCC(=O)N[C@@H](CCC(=O)N[C@@H](CCC(=O)N[C@@H](CCC(=O)NCCOCCOCC(=O)NCCOCCOCC(=O)NCCOCCOCC(=O)NCCCC[C@H](NC(=O)[C@H](CCCCNC(C)=O)NC(=O)[C@H](CCCCN)NC(=O)[C@H](CCCNC(=N)N)NC(=O)C(C)(C)NC(=O)[C@H](CO)NC(=O)[C@H](Cc1c[nH]c2ccccc12)NC(=O)[C@@H](NC(=O)[C@H](CO)NC(=O)[C@H](CCCC)NC(=O)CNC(=O)[C@H](CCC(=O)O)NC(=O)C(C)(C)NC(=O)C(C)(C)NC(=O)[C@@H](NC(=O)[C@H](CCCCNC(C)=O)NC(=O)[C@H](C)NC(=O)[C@H](CCCNC(=N)N)NC(=O)[C@@H](NC(=O)[C@H](CCCCN)NC(=O)[C@H](CCC(=O)O)NC(=O)[C@H](CCCNC(=N)N)NC(=O)CNC(=O)[C@H](CCC(=O)O)NC(=O)[C@H](CC(C)C)NC(C)=O)C(C)C)[C@@H](C)CC)[C@@H](C)O)C(N)=O)C(=O)O)C(=O)O)C(=O)O", "note": "[compound 81] (Ac-LEGREKVRAK(Ac)I[Aib][Aib]EG[Nle]STWS[Aib]RKK(Ac)K([AEEA-AEEA-AEEA-γGlu-γGlu-γGlu-Stearoyl])-NH2)", "values": [{"measurement": "Rat plasma stability % remaining T = 0", "setting": "[1]", "value": 100, "unit": "%"}, {"measurement": "remaining at 1 h, 5 µM", "setting": "[1]; [3]", "value": 101, "unit": "%"}, {"measurement": "remaining at 4 h, 5 µM", "setting": "[1]; [4]", "value": 114, "unit": "%"}, {"measurement": "Human Plasma stability % remaining T = 0", "setting": "[2]", "value": 100, "unit": "%"}, {"measurement": "remaining at 1 h, 5 µM", "setting": "[2]; [5]", "value": 111, "unit": "%"}, {"measurement": "remaining at 4 h, 5 µM", "setting": "[2]; [6]", "value": 111, "unit": "%"}]}
{"molecule": "CCCCCCCCCCCCCCCC(=O)N[C@@H](CCC(=O)N[C@@H](CCC(=O)N[C@@H](CCC(=O)N[C@@H](CCC(=O)NCCCC[C@H](NC(=O)COCCOCCNC(=O)COCCOCCNC(=O)COCCOCCNC(=O)COCCOCCNC(=O)[C@H](CCCCNC(C)=O)NC(=O)[C@H](C)NC(=O)[C@H](CCCNC(=N)N)NC(=O)[C@](C)(CCCCN)NC(=O)[C@H](CO)NC(=O)[C@H](Cc1ccccc1)NC(=O)[C@@H](NC(=O)[C@H](CO)NC(=O)[C@H](CCCC)NC(=O)CNC(=O)[C@H](CCC(=O)O)NC(=O)C(C)(C)NC(=O)C(C)(C)NC(=O)[C@@H](NC(=O)[C@H](CCCCNC(C)=O)NC(=O)[C@H](C)NC(=O)[C@H](CCCNC(=N)N)NC(=O)[C@@H](NC(=O)[C@H](CCCCN)NC(=O)[C@H](CCC(=O)O)NC(=O)[C@H](CCCNC(=N)N)NC(=O)CNC(=O)[C@H](CCC(=O)O)NC(=O)[C@H](CC(C)C)NC(C)=O)C(C)C)[C@@H](C)CC)[C@@H](C)O)C(N)=O)C(=O)O)C(=O)O)C(=O)O)C(=O)O", "note": "[compound 150] (Ac-LEGREKVRAK(Ac)I[Aib][Aib]EG[Nle]STFS[αMeK]RAK(Ac)[AEEA][AEEA][AEEA][AEEA]K([γGlu-γGlu-γGlu-γGlu-Palmitoyl])-NH2)", "values": [{"measurement": "Rat plasma stability % remaining T = 0", "setting": "[1]", "value": 100, "unit": "%"}, {"measurement": "remaining at 1 h, 5 µM", "setting": "[1]; [7]", "value": 86, "unit": "%"}, {"measurement": "remaining at 4 h, 5 µM", "setting": "[1]; [8]", "value": 90, "unit": "%"}, {"measurement": "Human Plasma stability % remaining T = 0", "setting": "[2]", "value": 100, "unit": "%"}, {"measurement": "remaining at 1 h, 5 µM", "setting": "[2]; [9]", "value": 34, "unit": "%"}, {"measurement": "remaining at 4 h, 5 µM", "setting": "[2]; [10]", "value": 78, "unit": "%"}]}
{"molecule": "CCCCCCCCCCCCCCCC(=O)N[C@@H](CCC(=O)N[C@@H](CCC(=O)N[C@@H](CCC(=O)N[C@@H](CCC(=O)NCCCC[C@H](NC(=O)COCCOCCNC(=O)COCCOCCNC(=O)COCCOCCNC(=O)COCCOCCNC(=O)[C@H](CCCCNC(C)=O)NC(=O)[C@H](C)NC(=O)[C@H](CCCNC(=N)N)NC(=O)[C@](C)(CCCCN)NC(=O)[C@H](CO)NC(=O)[C@H](Cc1ccccc1)NC(=O)[C@@H](NC(=O)[C@H](CO)NC(=O)[C@H](CCC(N)=O)NC(=O)CNC(=O)[C@H](CCC(=O)O)NC(=O)C(C)(C)NC(=O)C(C)(C)NC(=O)[C@@H](NC(=O)[C@H](CCCCNC(C)=O)NC(=O)[C@H](C)NC(=O)[C@H](CCCNC(=N)N)NC(=O)[C@@H](NC(=O)[C@H](CCCCN)NC(=O)[C@H](CCC(=O)O)NC(=O)[C@H](CCCNC(=N)N)NC(=O)CNC(=O)[C@H](CCC(=O)O)NC(=O)[C@H](CC(C)C)NC(C)=O)C(C)C)[C@@H](C)CC)[C@@H](C)O)C(N)=O)C(=O)O)C(=O)O)C(=O)O)C(=O)O", "note": "[compound 170] (Ac-LEGREKVRAK(Ac)I[Aib][Aib]EGQSTFS[αMeK]RAK(Ac)[AEEA][AEEA][AEEA][AEEA]K([γGlu-γGlu-γGlu-γGlu-Palmitoyl])-NH2)", "values": [{"measurement": "Rat plasma stability % remaining T = 0", "setting": "[1]", "value": 100, "unit": "%"}, {"measurement": "remaining at 1 h, 5 µM", "setting": "[1]; [7]", "value": 107, "unit": "%"}, {"measurement": "remaining at 4 h, 5 µM", "setting": "[1]; [8]", "value": 99, "unit": "%"}, {"measurement": "Human Plasma stability % remaining T = 0", "setting": "[2]", "value": 100, "unit": "%"}, {"measurement": "remaining at 1 h, 5 µM", "setting": "[2]; [9]", "value": 107, "unit": "%"}, {"measurement": "remaining at 4 h, 5 µM", "setting": "[2]; [10]", "value": 106, "unit": "%"}]}
